Values quoted from earlier work as cited in patent publication EP2077109A1, “AMIDE COMPOUND, SALT THEREOF, AND BIOFILM REMOVER USING THEM” (The University of Tokyo, priority 2006, dated 2008).

System: autoinducer
Settings: statement taken from Patent Document 1 (JP 2006-512290)

In the case of `CCCCCCCCCC(=O)CC(=O)NN1CCCCC1`, the autoinducer agonist activity is listed as “exhibits autoinducer agonist activity”.
